This note sets out measurements from EP1497262B1, “ACYL-4-CARBOXYPHENYLUREA DERIVATIVES, METHOD FOR PRODUCTION AND USE THEREOF” (Sanofi-Aventis Deutschland GmbH, priority 2002, dated 2003).

As usually defined, the inhibition is the share of the control response that was lost under treatment.

This test concerns the target T1, Humane Glykogenphosphorylase a (Homo sapiens, UniProt P06737).
T1 sequence (P06737 1-847): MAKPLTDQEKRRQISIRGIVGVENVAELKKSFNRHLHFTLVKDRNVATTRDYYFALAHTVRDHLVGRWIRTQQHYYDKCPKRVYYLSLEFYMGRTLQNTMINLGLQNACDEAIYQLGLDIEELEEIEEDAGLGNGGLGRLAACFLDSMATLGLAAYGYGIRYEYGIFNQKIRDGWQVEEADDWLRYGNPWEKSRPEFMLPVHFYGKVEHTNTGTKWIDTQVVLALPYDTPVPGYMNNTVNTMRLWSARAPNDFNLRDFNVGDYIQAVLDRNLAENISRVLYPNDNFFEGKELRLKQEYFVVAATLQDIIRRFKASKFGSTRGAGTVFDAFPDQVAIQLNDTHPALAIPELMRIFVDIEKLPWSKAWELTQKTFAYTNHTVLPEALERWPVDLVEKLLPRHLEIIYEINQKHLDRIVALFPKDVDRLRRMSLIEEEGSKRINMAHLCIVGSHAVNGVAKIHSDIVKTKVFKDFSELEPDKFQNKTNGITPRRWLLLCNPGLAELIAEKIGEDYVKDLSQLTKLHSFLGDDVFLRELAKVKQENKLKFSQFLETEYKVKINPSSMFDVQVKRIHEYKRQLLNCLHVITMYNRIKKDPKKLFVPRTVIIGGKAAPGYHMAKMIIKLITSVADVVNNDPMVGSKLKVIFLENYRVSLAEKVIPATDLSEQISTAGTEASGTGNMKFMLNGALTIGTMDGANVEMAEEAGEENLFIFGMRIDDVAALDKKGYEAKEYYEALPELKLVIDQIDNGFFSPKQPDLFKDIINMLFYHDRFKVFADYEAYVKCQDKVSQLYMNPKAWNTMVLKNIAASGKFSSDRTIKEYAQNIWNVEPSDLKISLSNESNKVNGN
Description: Glycogen phosphorylase a activity test (reverse direction, release of inorganic phosphate). It counts as biochemical. The conditions noted are these: 10 µM test substance, in vitro, 40 min at room temperature, absorbance at 820 nm; for inhibition at 10 µM: read-out: % Inhibition bei 10 µM. On the procedure: Glykogenphosphorylase a Aktivitätstest
Der Effekt von Verbindungen auf die Aktivität der aktiven Form der Glykogenphosphorylase (GPa) wurde in der umgekehrten Richtung, durch Verfolgen der Glykogensynthese aus Glukose-1-Phosphat an Hand der Bestimmung der Freisetzung von anorganischem Phosphat, gemessen.
Prüfsubstanzen wurden als 10 mM Lösung in DMSO zubereitet und auf 50 µM mit Pufferlösung T verdünnt. Zu 10 µl dieser Lösung wurden 10 µl 37,5 mM Glukose, gelöst in Pufferlösung T und 5 mg/mL Glykogen, sowie 10 µl einer Lösung von humaner Glykogenphosphorylase a ([…]) und 20 µl Glukose-1-Phosphat, 2,5 mM zugegeben. Der basale Wert der Glykogenphosphorylase a Aktivität in Abwesenheit von Prüfsubstanz wurde durch Zugabe von 10 µl Pufferlösung T (0,1 % DMSO) bestimmt. […] Zur Bestimmung der Hintergrundsabsorption wurde in einem separaten Ansatz die Stop-Lösung unmittelbar nach Zugabe der Glukose-1-Phosphatlösung zugegeben.
Dieser Test wurde mit einer Konzentrationen von 10 µM der Prüfsubstanz durchgeführt, um die jeweilige Hemmung der Glykogenphosphorylase a in vitro durch die Prüfsubstanz zu bestimmen. Tabelle 2: Biologische Aktivität

For the compound `O=C(NC(=O)c1ccccc1Cl)Nc1ccc(C(=O)O)cc1[N+](=O)[O-]` [compound 1], the inhibition at 10 µM turned out to be 71%. Take `NC(CO)(CO)CO.O=C(NC(=O)c1cc(F)c(F)cc1Cl)Nc1ccc(C(=O)O)cc1OC(F)(F)F` [compound 49, 4-[3-(2-Chlor-4,5-difluor-benzoyl)-ureido]-3-trifluoromethoxy-benzoesäure TRIS-Salz]: the “% Inhibition bei 10 µM” value was 103%.

For `O=C(NC(=O)c1ccc(Cl)cc1Cl)Nc1ccc(C(=O)O)cc1[N+](=O)[O-]` [compound 2], the inhibition at 10 µM is 85%. As to `CCOC(=O)c1ccc(NC(=O)NC(=O)c2c(F)cccc2F)cc1` [Vergleichsbeispiel A, reference compound], the inhibition at 10 µM was 3%. As to `O=C(NC(=O)c1ccc(Cl)cc1Cl)Nc1ccc(C(=O)O)cc1O` [compound 5], the inhibition at 10 µM was determined as 80%.
